According to PubChem BioAssay (NCI):
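Grown in 96-well plates, cells were treated for 48 hours with each compound at five concentrations. Insufficient inhibition: endpoint recorded as highest concentration tested. GI50 is the concentration that inhibits growth by half. TGI: concentration producing complete growth inhibition.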

Assays:
Experiment in all cases: inhibition of tumour cell growth, NCI panel, 48 h
NCI/ADR-RES ovarian = tested on: NCI/ADR-RES ovarian
A498 renal = tested on: A498 renal
SF-539 CNS = tested on: SF-539 CNS
ACHN renal = tested on: ACHN renal
SF-295 CNS = tested on: SF-295 CNS
MDA-MB-231 breast = tested on: MDA-MB-231 breast
SK-MEL-2 melanoma = tested on: SK-MEL-2 melanoma
NCI-H226 lung = tested on: NCI-H226 lung
UACC-62 melanoma = tested on: UACC-62 melanoma
HL-60(TB) leukemia = tested on: HL-60(TB) leukemia

O=[N+]([O-])c1ccc2c(c1)C(c1ccccc1Cl)=Nc1cn[nH]c1N2
GI50 (NCI/ADR-RES ovarian): 23.1 µM
TGI (NCI/ADR-RES ovarian): > 25 µM
GI50 (A498 renal): 8.27 µM
TGI (A498 renal): > 23.3 µM
GI50 (SF-539 CNS): 14.6 µM
TGI (SF-539 CNS): > 25 µM
GI50 (ACHN renal): 14.4 µM
TGI (ACHN renal): > 25 µM
GI50 (SF-295 CNS): 8.48 µM
TGI (SF-295 CNS): > 23.8 µM
GI50 (MDA-MB-231 breast): 14.6 µM
TGI (MDA-MB-231 breast): > 25 µM
GI50 (SK-MEL-2 melanoma): 10.7 µM
TGI (SK-MEL-2 melanoma): > 22 µM
GI50 (NCI-H226 lung): 11.8 µM
TGI (NCI-H226 lung): > 25 µM
GI50 (UACC-62 melanoma): 16 µM
TGI (UACC-62 melanoma): > 25 µM
GI50 (HL-60(TB) leukemia): 14.4 µM
TGI (HL-60(TB) leukemia): > 25 µM

CC(C)S(=O)(=O)c1ccccc1Nc1nc(Nc2cccc(NC(=O)CN)c2)ncc1Cl
GI50 (NCI/ADR-RES ovarian): 0.482 µM
TGI (NCI/ADR-RES ovarian): 3.6 µM
GI50 (A498 renal): < 0.0242 µM
TGI (A498 renal): 0.493 µM
GI50 (SF-539 CNS): 0.0455 µM
TGI (SF-539 CNS): 0.334 µM
GI50 (ACHN renal): 0.124 µM
TGI (ACHN renal): 6.95 µM
GI50 (SF-295 CNS): < 0.0225 µM
TGI (SF-295 CNS): 8.59 µM
GI50 (MDA-MB-231 breast): 0.239 µM
TGI (MDA-MB-231 breast): 3.97 µM
GI50 (SK-MEL-2 melanoma): 0.347 µM
TGI (SK-MEL-2 melanoma): 1.57 µM
GI50 (NCI-H226 lung): 0.113 µM
TGI (NCI-H226 lung): 1.98 µM
GI50 (UACC-62 melanoma): 0.164 µM
TGI (UACC-62 melanoma): 1.83 µM
GI50 (HL-60(TB) leukemia): 0.103 µM
TGI (HL-60(TB) leukemia): 0.55 µM

CCCCC1(CN2CCOCC2)S/C(=N/c2nc(CC(=O)OCC)cs2)NC1=O (configuration not stated)
GI50 (NCI/ADR-RES ovarian): 40.1 µM
TGI (NCI/ADR-RES ovarian): > 100 µM
GI50 (A498 renal): 41.5 µM
TGI (A498 renal): > 100 µM
GI50 (SF-539 CNS): 29 µM
TGI (SF-539 CNS): 89.9 µM
GI50 (ACHN renal): 33.9 µM
TGI (ACHN renal): > 100 µM
GI50 (SF-295 CNS): 35.3 µM
TGI (SF-295 CNS): > 100 µM
GI50 (MDA-MB-231 breast): 25.8 µM
TGI (MDA-MB-231 breast): 74.2 µM
GI50 (SK-MEL-2 melanoma): 29.7 µM
TGI (SK-MEL-2 melanoma): 89.2 µM
GI50 (NCI-H226 lung): 38.6 µM
TGI (NCI-H226 lung): > 100 µM
GI50 (UACC-62 melanoma): 28.3 µM
TGI (UACC-62 melanoma): > 100 µM
GI50 (HL-60(TB) leukemia): 30.2 µM
TGI (HL-60(TB) leukemia): 62.5 µM

Cc1cc2c(cc1Cl)SC(=Nc1ccc(Cl)cc1)N(S(=O)(=O)c1ccccc1)S2(=O)=O
GI50 (NCI/ADR-RES ovarian): 5.25 µM
TGI (NCI/ADR-RES ovarian): 19.3 µM
GI50 (SF-539 CNS): 1.03 µM
TGI (SF-539 CNS): 3.53 µM
GI50 (ACHN renal): 1.95 µM
TGI (ACHN renal): 10.5 µM
GI50 (SF-295 CNS): 13.2 µM
TGI (SF-295 CNS): 32.6 µM
GI50 (MDA-MB-231 breast): 2.79 µM
TGI (MDA-MB-231 breast): 16 µM
GI50 (SK-MEL-2 melanoma): 11.8 µM
TGI (SK-MEL-2 melanoma): 27.6 µM
GI50 (NCI-H226 lung): 11.5 µM
TGI (NCI-H226 lung): 35.4 µM
GI50 (UACC-62 melanoma): 11.6 µM
TGI (UACC-62 melanoma): 23.8 µM
GI50 (HL-60(TB) leukemia): 11.7 µM
TGI (HL-60(TB) leukemia): 32.7 µM

CCc1ccccc1NC(=O)c1sc2nc3c(cc2c1N)C(=O)CCC3
GI50 (NCI/ADR-RES ovarian): 0.433 µM
TGI (NCI/ADR-RES ovarian): 41.1 µM
GI50 (A498 renal): 0.22 µM
TGI (A498 renal): 5.52 µM
GI50 (SF-539 CNS): 0.373 µM
TGI (SF-539 CNS): 3.15 µM
GI50 (ACHN renal): 1.17 µM
TGI (ACHN renal): > 100 µM
GI50 (SF-295 CNS): 0.283 µM
TGI (SF-295 CNS): > 88 µM
GI50 (MDA-MB-231 breast): 1.49 µM
TGI (MDA-MB-231 breast): > 100 µM
GI50 (NCI-H226 lung): 23.2 µM
TGI (NCI-H226 lung): > 100 µM
GI50 (UACC-62 melanoma): 0.439 µM
TGI (UACC-62 melanoma): > 100 µM
GI50 (HL-60(TB) leukemia): 0.326 µM
TGI (HL-60(TB) leukemia): 43.7 µM

N#CC(=NCCO)C1=C(O)c2ccccc2C1=O
TGI (NCI/ADR-RES ovarian): > 100 µM
TGI (A498 renal): > 100 µM
TGI (SF-539 CNS): > 100 µM
TGI (ACHN renal): > 100 µM
TGI (SF-295 CNS): > 100 µM
TGI (MDA-MB-231 breast): > 100 µM
TGI (SK-MEL-2 melanoma): > 100 µM
TGI (NCI-H226 lung): > 100 µM
TGI (UACC-62 melanoma): > 100 µM
TGI (HL-60(TB) leukemia): > 100 µM

C=CCSS/C=C/CS(=O)CC=C (configuration not stated)
TGI (NCI/ADR-RES ovarian): 74.5 µM
TGI (A498 renal): > 100 µM
TGI (SF-539 CNS): 51.6 µM
TGI (ACHN renal): > 100 µM
TGI (SF-295 CNS): > 100 µM
TGI (MDA-MB-231 breast): 56.3 µM
TGI (SK-MEL-2 melanoma): 97.6 µM
TGI (NCI-H226 lung): > 100 µM
TGI (UACC-62 melanoma): > 82.7 µM
TGI (HL-60(TB) leukemia): > 100 µM

COc1ccc(OC)c2c(/C=C/c3ccc(N(C)C)cc3)ccnc12
TGI (NCI/ADR-RES ovarian): > 10 µM
TGI (A498 renal): > 10 µM
TGI (SF-539 CNS): 6.07 µM
TGI (ACHN renal): > 10 µM
TGI (SF-295 CNS): > 10 µM
TGI (MDA-MB-231 breast): > 10 µM
TGI (SK-MEL-2 melanoma): > 10 µM
TGI (NCI-H226 lung): > 10 µM
TGI (UACC-62 melanoma): > 10 µM
TGI (HL-60(TB) leukemia): 3.86 µM

COc1ccc(C(=O)COc2cccc(/C=C3\Oc4ccc5ccccc5c4C3=O)c2)cc1
GI50 (NCI/ADR-RES ovarian): 16.7 µM
TGI (NCI/ADR-RES ovarian): 33.2 µM
GI50 (A498 renal): 20.6 µM
TGI (A498 renal): 37.1 µM
GI50 (SF-539 CNS): 13.4 µM
TGI (SF-539 CNS): 26.3 µM
GI50 (ACHN renal): 15.2 µM
TGI (ACHN renal): 29 µM
GI50 (SF-295 CNS): 14.3 µM
TGI (SF-295 CNS): 36.4 µM
GI50 (MDA-MB-231 breast): 11.9 µM
TGI (MDA-MB-231 breast): 25.6 µM
GI50 (SK-MEL-2 melanoma): 3.76 µM
TGI (SK-MEL-2 melanoma): 16.6 µM
GI50 (NCI-H226 lung): 6.58 µM
TGI (NCI-H226 lung): 22.4 µM
GI50 (UACC-62 melanoma): 10.7 µM
TGI (UACC-62 melanoma): 22.5 µM
GI50 (HL-60(TB) leukemia): 3.19 µM
TGI (HL-60(TB) leukemia): 18.7 µM

O=C(COc1ccc(/C=C2\CSc3ccccc3C2=O)cc1)Nc1nccs1
GI50 (NCI/ADR-RES ovarian): 21.4 µM
TGI (NCI/ADR-RES ovarian): 66.5 µM
GI50 (A498 renal): 15.8 µM
TGI (A498 renal): 29.2 µM
GI50 (SF-539 CNS): 15 µM
TGI (SF-539 CNS): 29.7 µM
GI50 (ACHN renal): 13.5 µM
TGI (ACHN renal): 26.4 µM
GI50 (SF-295 CNS): 11.8 µM
TGI (SF-295 CNS): 25.6 µM
GI50 (MDA-MB-231 breast): 14.4 µM
TGI (MDA-MB-231 breast): 35 µM
GI50 (SK-MEL-2 melanoma): 11.3 µM
TGI (SK-MEL-2 melanoma): 23.3 µM
GI50 (NCI-H226 lung): 15.6 µM
TGI (NCI-H226 lung): 32.5 µM
GI50 (UACC-62 melanoma): 5.32 µM
TGI (UACC-62 melanoma): 19 µM

Cc1cn2c(/C=C3\C(=O)N(C)c4ccc(O)cc43)c(C)nc2s1
GI50 (NCI/ADR-RES ovarian): 8.27 µM
TGI (NCI/ADR-RES ovarian): > 100 µM
GI50 (A498 renal): 21.6 µM
TGI (A498 renal): 60.4 µM
GI50 (SF-539 CNS): 5.58 µM
TGI (SF-539 CNS): 28 µM
GI50 (ACHN renal): 13.3 µM
TGI (ACHN renal): > 100 µM
GI50 (SF-295 CNS): 2.82 µM
TGI (SF-295 CNS): 23.6 µM
GI50 (MDA-MB-231 breast): 7.89 µM
TGI (MDA-MB-231 breast): > 100 µM
GI50 (SK-MEL-2 melanoma): 3.33 µM
TGI (SK-MEL-2 melanoma): 18.4 µM
GI50 (NCI-H226 lung): 52.1 µM
TGI (NCI-H226 lung): > 100 µM
GI50 (UACC-62 melanoma): 7.61 µM
TGI (UACC-62 melanoma): > 100 µM
GI50 (HL-60(TB) leukemia): 2.15 µM
TGI (HL-60(TB) leukemia): 6.1 µM

Cc1c(C2=C(Br)C(=O)N(C)C2=O)c(=O)n(C)c(=O)n1C
TGI (NCI/ADR-RES ovarian): 74.1 µM
TGI (A498 renal): 82.9 µM
TGI (SF-539 CNS): 34.6 µM
TGI (ACHN renal): 94.3 µM
TGI (SF-295 CNS): > 100 µM
TGI (MDA-MB-231 breast): 65.3 µM
TGI (SK-MEL-2 melanoma): 35.2 µM
TGI (NCI-H226 lung): > 100 µM
TGI (UACC-62 melanoma): 97.9 µM
TGI (HL-60(TB) leukemia): 41 µM

Cc1cc(C2CC(O)C(CO)O2)cc2c(=O)[nH]c(N)nc12 (configuration not stated)
GI50 (NCI/ADR-RES ovarian): > 100 µM
TGI (NCI/ADR-RES ovarian): > 100 µM
GI50 (A498 renal): > 100 µM
TGI (A498 renal): > 100 µM
GI50 (SF-539 CNS): > 100 µM
TGI (SF-539 CNS): > 100 µM
GI50 (SF-295 CNS): > 100 µM
TGI (SF-295 CNS): > 100 µM
GI50 (MDA-MB-231 breast): > 100 µM
TGI (MDA-MB-231 breast): > 100 µM
GI50 (SK-MEL-2 melanoma): > 100 µM
TGI (SK-MEL-2 melanoma): > 100 µM
GI50 (NCI-H226 lung): > 100 µM
TGI (NCI-H226 lung): > 100 µM
GI50 (UACC-62 melanoma): > 100 µM
TGI (UACC-62 melanoma): > 100 µM

COc1cc2c3c(n(CCCN(C)C)c(=O)c2cc1OC)-c1ccccc1C3=O
GI50 (NCI/ADR-RES ovarian): 5.94 µM
TGI (NCI/ADR-RES ovarian): > 49.1 µM
GI50 (A498 renal): 24.7 µM
TGI (A498 renal): > 73.9 µM
GI50 (SF-539 CNS): 4.47 µM
TGI (SF-539 CNS): 28.7 µM
GI50 (ACHN renal): 6.9 µM
TGI (ACHN renal): 20.8 µM
GI50 (SF-295 CNS): 1.26 µM
GI50 (MDA-MB-231 breast): 10.6 µM
TGI (MDA-MB-231 breast): 23.6 µM
GI50 (SK-MEL-2 melanoma): > 100 µM
TGI (SK-MEL-2 melanoma): > 100 µM
GI50 (NCI-H226 lung): 18.6 µM
TGI (NCI-H226 lung): > 100 µM
GI50 (UACC-62 melanoma): 1.48 µM
TGI (UACC-62 melanoma): 19.1 µM
